Results on 9 molecules are retold here after PubChem BioAssay (NCI).

The structures appear in SMILES notation.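 Protocol summary: plate cells (96-well), add compound at 5 concentrations, incubate 48 h, interpolate endpoints linearly. GI50 = concentration required for 50% inhibition of growth. TGI denotes the concentration required for complete inhibition of growth.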

Common to all, as to assay: inhibition of tumour cell growth, NCI panel, 48 h
Assay [1] relates to NCI-H226 lung.
Assay [2] relates to IGROV1 ovarian.
Assay [3] concerns SNB-75 CNS.
Assay [4] deals with MOLT-4 leukemia.
Assay [5] deals with ACHN renal.
Assay [6] has as its system UO-31 renal.
The test system of assay [7] is SF-268 CNS.
Assay [8] deals with M14 melanoma.
Assay [9] has as its system MALME-3M melanoma.
Assay [10] deals with LOX IMVI melanoma.

Take `CCN(CC)CCCNc1nc2ccccc2c2c(=O)c3cc(Cl)ccc3sc12`: the GI50 in assay [1] is 10.7 µM; in assay [2], 1.36 µM; in assay [3] it was 4.36 µM; in [4], 2.22 µM; in assay [5], 1.63 µM; in assay [6], 1.79 µM. Moreover, the GI50 in assay [7] is 3.26 µM; in [8] it was 1.94 µM; in assay [9], 1.63 µM; in [10], 1.65 µM. The TGI stood at 25.1 µM in assay [1]; 3.1 µM in assay [2]; 18.3 µM in assay [3]; 4.92 µM in [4]; 3.22 µM in [5]; 9.97 µM in assay [6]. The TGI in assay [7] worked out at 14.3 µM; in assay [8], 3.81 µM; in assay [9], 3.26 µM; in assay [10] it was 3.08 µM.

For the molecule `COc1ccc(NC(=O)COC(=O)c2cccc3c(=O)c4ccccc4[nH]c23)cc1`, the TGI was determined as 44.6 µM in assay [1]; 91.3 µM in assay [2]; 41.2 µM in [3]; 33.7 µM in assay [4]; 45.6 µM in assay [5]; 36.4 µM in [6]. Moreover, the TGI in assay [7] came to 55.2 µM; in [8] it was 90.7 µM; in [9], 50.2 µM; in assay [10], 28.3 µM.

Consider `CC(C)=CCc1ccc(O)c(=O)cc1C(C)C`, for which the GI50 in assay [1] was 2.37 µM; in [2], 0.43 µM; in assay [3], 2.88 µM; in assay [4], 0.394 µM; in [5] it was 0.484 µM; in assay [6], 0.378 µM. Further, the GI50 was 0.671 µM in [7], 0.68 µM in assay [8], 0.966 µM in [9] and 0.327 µM in assay [10]. In addition, the TGI is over 100 µM in assay [1]; 16.1 µM in assay [2]; over 100 µM in assay [3]; over 100 µM in assay [4]; over 100 µM in assay [5]; 3.92 µM in [6]. In addition, the TGI in assay [7] was over 100 µM; in [8], 3.95 µM; in [9], 9.39 µM; in [10], over 22.9 µM.

As to `CC1CC(C)/C(=N/NC(N)=O)C(C(O)CC2CCC(=O)NC2=O)C1` (stereo unspecified), the GI50 in assay [1] was 4.69 µM; in [2] it was 2.64 µM; in assay [3], 4.26 µM; in assay [4], 4.09 µM; in assay [5] it was 1.32 µM; in assay [6] it was 2.33 µM. The GI50 in assay [7] was 2.98 µM; in assay [8] it was 3.64 µM; in assay [9] it was 3.21 µM; in assay [10], 2.48 µM. Moreover, the TGI is over 100 µM in [1]; 56.5 µM in assay [2]; over 100 µM in assay [3]; over 100 µM in assay [4]; over 100 µM in assay [5]; 34.3 µM in assay [6]. In addition, the TGI in assay [7] was 45.1 µM; in [8] it was over 100 µM; in assay [9], 41.8 µM; in assay [10], over 100 µM.

For the molecule `O[C@@H]1CCCN1Cc1cc2cc3c(cc2c2cc(OCc4ccccc4)ccc12)OCO3`, the GI50 in [1] is 15.7 µM; in assay [2] it was 5.48 µM; in [3] it was 5.92 µM; in [4] it was 3.38 µM; in [5], 8.37 µM; in assay [6], 11.2 µM. Further, the GI50 is 4.78 µM in assay [7], 1.81 µM in assay [8], 2.37 µM in assay [9] and 1.8 µM in [10]. The TGI in assay [1] was found to be 37.7 µM; in assay [2] it was 20.1 µM; in assay [3] it was 19.7 µM; in assay [4], 14.1 µM; in assay [5] it was 22 µM; in assay [6] it was 25.2 µM. Also, the TGI in assay [7] amounted to 20.1 µM; in assay [8], 3.35 µM; in assay [9] it was 5.44 µM; in assay [10] it was 3.44 µM.

For `CCCCCCCCCCCCCC(=O)OC(/C=C/C(C)C)C(O)C(O)C(OC)C(=O)NC1CCCCNC1=O` (stereo unspecified), the TGI in assay [1] was 8.95 µM; in assay [2] it was 5.15 µM; in assay [3], 9.46 µM; in [4], 10.5 µM; in assay [5], 4.76 µM; in [6], 4.98 µM. For the same molecule, the TGI in [7] was 3.63 µM; in assay [8] it was 4.35 µM; in [9], 5.36 µM; in assay [10] it was 4.38 µM. Moreover, the GI50 was 0.65 µM in assay [2]; 4.63 µM in assay [3]; 5.57 µM in [4]; 4.1 µM in assay [5]; 2.61 µM in assay [8]; 1.73 µM in assay [10].

For `CC(C)(C)c1cn2cccc(C(=O)N3CCN(CC(=O)Nc4ccc(Cl)cc4C(=O)c4ccccc4Cl)CC3)c2n1`, the GI50 in assay [1] is 11.3 µM; in [2] it was 16.4 µM; in assay [3], 12.8 µM; in assay [4], 5.52 µM; in assay [5], 6.62 µM; in assay [6], 22.4 µM. Moreover, the GI50 in assay [7] is 13 µM; in assay [8], 15.4 µM; in assay [9] it was 19.9 µM; in assay [10], 11 µM. The TGI is 37 µM in assay [1]; 38.5 µM in assay [2]; 90.2 µM in assay [3]; over 100 µM in assay [4]; 61.4 µM in [5]; 74.7 µM in assay [6]. The TGI in assay [7] turned out to be 43.6 µM; in assay [8], 33.2 µM; in assay [9], 38.8 µM; in assay [10], 23.9 µM.

For `Cc1ccc([N+](=O)[O-])cc1NC(=O)C(=O)Cc1cc(=O)oc2cc(O)ccc12`, the TGI in assay [1], in assay [2], in assay [3], in [4], in assay [5] and in assay [6] was over 100 µM each time. In addition, the TGI in assay [7] is over 100 µM; in [8], over 100 µM; in [9] it was over 100 µM; in assay [10], 97 µM.

For the molecule `O=C1Cc2ccccc2N1c1c(Cl)cccc1Cl`, the TGI was over 100 µM in assay [1]; over 100 µM in assay [2]; over 100 µM in assay [3]; 98.1 µM in assay [4]; over 100 µM in [5]; over 100 µM in assay [6]. In addition, the TGI in assay [7], in assay [8], in assay [9] and in assay [10] was over 100 µM in each case.
